Assay [1] addresses HA-GST-Rheb (GTP-γ-S loaded) activating mTORC1 (Homo sapiens (Human), UniProt Q15382). The assay can be described thus: Rheb-dependent in vitro kinase assay (Rheb-IVK; LanthaScreen or Western readout). The assay is classed as biochemical. As to conditions: Rheb-dependent in vitro kinase assay; read-out: IVK IC50.
Assay [2] has as its target Rheb (Homo sapiens (Human), UniProt Q15382). The assay can be described thus: Affinity Selection Mass Spectrometry (ASMS). As to conditions: affinity (R3/R0) in Affinity Selection Mass Spectrometry assay. The assay is classed as binding. An outline of the steps:
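Affinity selection used 2 μM compound with 60 μM Rheb and 180 μM GDP for 30 min at room temperature. After 10 kDa ultrafiltration washes, protein was denatured in MeCN and bound compound quantified by C18 UPLC with Q-TOF MS, against a no-protein control.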

Sequence of HA-GST-Rheb (GTP-γ-S loaded) activating mTORC1 (Q15382 1-181): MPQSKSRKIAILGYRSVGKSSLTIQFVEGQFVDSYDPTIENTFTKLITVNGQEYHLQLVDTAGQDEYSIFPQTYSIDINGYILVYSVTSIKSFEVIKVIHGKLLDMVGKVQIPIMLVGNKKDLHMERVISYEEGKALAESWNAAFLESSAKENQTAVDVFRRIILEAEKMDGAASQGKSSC
Sequence of Rheb (Q15382 1-169 limits assumed): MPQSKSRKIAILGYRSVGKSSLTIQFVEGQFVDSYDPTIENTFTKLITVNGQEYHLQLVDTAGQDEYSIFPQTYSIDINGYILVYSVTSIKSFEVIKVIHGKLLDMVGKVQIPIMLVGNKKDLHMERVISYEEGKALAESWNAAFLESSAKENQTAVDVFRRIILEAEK

As a reminder, the IC50 is the concentration needed to halve the response being measured. Consider `O=C(O)c1cc2c(Oc3ccccc3)cc(Cl)cc2[nH]1` [I-175, 6-chloro-4-phenoxy-1H-indole-2-carboxylic acid], for which, in assay [1], the IC50 lay within 100 to 300 µM. For the same compound, the “ASMS (R3/R0)” value in assay [2] was “B (an affinity (R3/R0) between 100% and 20%)”.
With `OCc1cc2c(OCc3cccc(Cl)c3)cc(Cl)cc2[nH]1` [I-176, (6-chloro-4-(3-chlorobenzyloxy)-1H-indol-2-yl)methanol], in assay [1], the IC50 lay in the range of 10 to 100 µM. Also, the “ASMS (R3/R0)” value in assay [2] was “B (an affinity (R3/R0) between 100% and 20%)”.
Turning to `O=C(NO)c1cc2c(Sc3ccc(Cl)cc3)cc(Cl)cc2[nH]1` [I-177, 6-chloro-4-(4-chlorophenylthio)-N-hydroxy-1H-indole-2-carboxamide], the IC50 in assay [1] fell in the range of 10 to 100 µM. Besides, the “ASMS (R3/R0)” value in assay [2] is “A (an affinity (R3/R0)>100%)”.
With `Clc1ccc(Sc2cc(Cl)cc3[nH]ccc23)cc1` [I-180, 6-chloro-4-(4-chlorophenylthio)-1H-indole], the IC50 in assay [1] fell in the range of 10 to 100 µM. Besides, in assay [2], the “ASMS (R3/R0)” value is “B (an affinity (R3/R0) between 100% and 20%)”.
As to `OCc1cc2ccc(Sc3ccc(Cl)cc3)cc2n1Cc1nc[nH]n1` [I-185], the IC50 in assay [1] is above 100 µM. Moreover, the “ASMS (R3/R0)” value in assay [2] is on record as “C (an affinity (R3/R0)<20%)”.
For the compound `CC(O)c1cc2c(Oc3ccccc3)cc(Cl)cc2[nH]1` (stereo not shown) [I-186, 1-(6-Chloro-4-phenoxy-1H-indol-2-yl)ethanol], in assay [1], the IC50 was 10 to 100 µM. The “ASMS (R3/R0)” value in assay [2] is “B (an affinity (R3/R0) between 100% and 20%)”.
As to `OCc1cc2c(Sc3ccc(Cl)cc3)cc(Cl)cc2[nH]1` [I-187, (6-chloro-4-(4-chlorophenylthio)-1H-indol-2-yl)methanol], in assay [1], the IC50 was below 10 µM. Also, in assay [2], the “ASMS (R3/R0)” value is “B (an affinity (R3/R0) between 100% and 20%)”.
In the case of `O=C(O)c1cc2c(Sc3ccc(Cl)cc3)cc(Cl)cc2[nH]1` [I-190, 6-chloro-4-(4-chlorophenylthio)-1H-indole-2-carboxylic acid], in assay [1], the IC50 lay in the range of 10 to 100 µM. For the same compound, the “ASMS (R3/R0)” value in assay [2] is “B (an affinity (R3/R0) between 100% and 20%)”.
Regarding `OCc1cc2c(Cl)cc(Oc3ccccc3)cc2n1Cc1nn[nH]n1` [I-194, (1-((2H-tetrazol-5-yl)methyl)-4-chloro-6-phenoxy-1H-indol-2-yl)methanol], the IC50 in assay [1] is 10 to 100 µM. Besides, the “ASMS (R3/R0)” value in assay [2] was “C (an affinity (R3/R0)<20%)”.
For the compound `OCc1cc(Sc2ccc(Cl)cc2)c2cc[nH]c2c1` [I-198, (4-(4-chlorophenylthio)-1H-indol-6-yl)methanol], the concentration for half-maximal inhibition (IC50) in assay [1] lay in the range of 10 to 100 µM. In addition, the “ASMS (R3/R0)” value in assay [2] was “B (an affinity (R3/R0) between 100% and 20%)”.
`Clc1cc(Oc2ccccc2Cl)c2cc[nH]c2c1` [I-202, 6-chloro-4-(2-chlorophenoxy)-1H-indole]: the IC50 in assay [1] was in the range of 10 to 100 µM. Also, the “ASMS (R3/R0)” value in assay [2] is “B (an affinity (R3/R0) between 100% and 20%)”.
Consider `Clc1ccc(Oc2cc(Cl)cc3[nH]ccc23)cc1` [I-204, 6-chloro-4-(4-chlorophenoxy)-1H-indole], for which the IC50 in assay [1] fell in the range of 10 to 100 µM. In addition, the “ASMS (R3/R0)” value in assay [2] is recorded as “C (an affinity (R3/R0)<20%)”.
In the case of `Cn1c(C(=O)O)cc2c(Sc3ccc(Cl)cc3)cc(Cl)cc21` [I-207, 6-chloro-4-(4-chlorophenylthio)-1-methyl-1H-indole-2-carboxylic acid], in assay [1], the IC50 was in the range of 10 to 100 µM. Moreover, the “ASMS (R3/R0)” value in assay [2] is “B (an affinity (R3/R0) between 100% and 20%)”.
Take `Clc1cccc(Oc2cc(Cl)cc3[nH]ccc23)c1` [I-208, 6-chloro-4-(3-chlorophenoxy)-1H-indole]: the IC50 in assay [1] was in the range of 10 to 100 µM. Further, in assay [2], the “ASMS (R3/R0)” value was “B (an affinity (R3/R0) between 100% and 20%)”.
As for `Clc1ccc(Cl)c(Sc2cccc3[nH]ccc23)c1` [I-209, 4-(2,5-dichlorophenylthio)-1H-indole], in assay [1], the IC50 lay in the range of 10 to 100 µM. The “ASMS (R3/R0)” value in assay [2] is “B (an affinity (R3/R0) between 100% and 20%)”.
Regarding `Clc1ccc(Sc2cccc3[nH]ccc23)c(Cl)c1` [I-212], the IC50 in assay [1] is above 3 µM. In assay [2], the “ASMS (R3/R0)” value was “B (an affinity (R3/R0) between 100% and 20%)”.
For the compound `OCc1cc2c(Oc3cccc(Cl)c3)cc(Cl)cc2[nH]1` [I-215, (6-chloro-4-(3-chlorophenoxy)-1H-indol-2-yl)methanol], the IC50 in assay [1] fell in the range of 10 to 100 µM. In addition, the “ASMS (R3/R0)” value in assay [2] is “B (an affinity (R3/R0) between 100% and 20%)”.
As for `OCc1cc2c(Oc3ccccc3Cl)cc(Cl)cc2[nH]1` [I-216, (6-chloro-4-(2-chlorophenoxy)-1H-indol-2-yl)methanol], in assay [1], the IC50 lay within 10 to 100 µM. Also, the “ASMS (R3/R0)” value in assay [2] was “B (an affinity (R3/R0) between 100% and 20%)”.
With `CC(O)c1cc2c(Br)cc(Oc3ccccc3)cc2[nH]1` (stereo not shown) [I-218, 1-(4-bromo-6-phenoxy-1H-indol-2-yl)ethanol], the IC50 in assay [1] lay within 10 to 100 µM. For the same compound, the “ASMS (R3/R0)” value in assay [2] is “B (an affinity (R3/R0) between 100% and 20%)”.
For `Brc1cc(Oc2ccccc2)cc2c1ccn2Cc1ccc(-c2nn[nH]n2)cc1` [I-220, 1-(4-(2H-tetrazol-5-yl)benzyl)-4-bromo-6-phenoxy-1H-indole], the IC50 in assay [1] is below 10 µM. Further, in assay [2], the “ASMS (R3/R0)” value was “A (an affinity (R3/R0)>100%)”.
For `Cn1ccc2c(Sc3ccc(Cl)cc3)cccc21` [I-222], the IC50 in assay [1] was above 100 µM. Moreover, the “ASMS (R3/R0)” value in assay [2] is “B (an affinity (R3/R0) between 100% and 20%)”.
As to `OCc1cc2c(Cl)cc(Oc3ccccc3)cc2n1Cc1nc[nH]n1` [I-226], in assay [1], the IC50 was above 100 µM. The “ASMS (R3/R0)” value in assay [2] is “C (an affinity (R3/R0)<20%)”.
In the case of `OCc1cc2c(Br)cc(OCCCc3ccccc3)cc2[nH]1` [I-235, (4-Bromo-6-(3-phenylpropoxy)-1H-indol-2-yl)methanol], the IC50 in assay [1] lay within 10 to 100 µM. Besides, the “ASMS (R3/R0)” value in assay [2] is “B (an affinity (R3/R0) between 100% and 20%)”.
As for `OCc1cc2c(Br)cc(OCCc3ccccc3)cc2[nH]1` [I-236, (4-Bromo-6-phenethoxy-1H-indol-2-yl)methanol], in assay [1], the IC50 is 10 to 100 µM. Moreover, the “ASMS (R3/R0)” value in assay [2] was “B (an affinity (R3/R0) between 100% and 20%)”.
Consider `OCc1cc2c(Br)cc(Sc3ccccc3)cc2[nH]1` [I-237, (4-bromo-6-(phenylthio)-1H-indol-2-yl)methanol], for which, in assay [1], the IC50 lay within 10 to 100 µM. Also, the “ASMS (R3/R0)” value in assay [2] is “B (an affinity (R3/R0) between 100% and 20%)”.
In the case of `Brc1cc(Oc2ccccc2)cc2[nH]ccc12` [I-239, 4-bromo-6-phenoxy-1H-indole], in assay [1], the IC50 was in the range of 10 to 100 µM. Further, the “ASMS (R3/R0)” value in assay [2] is “B (an affinity (R3/R0) between 100% and 20%)”.
Turning to `OCc1cc2c(Br)cc(OCc3ccccc3)cc2[nH]1` [I-241, (6-(Benzyloxy)-4-bromo-1H-indol-2-yl)methanol], the half-maximal inhibitory concentration (IC50) in assay [1] fell in the range of 10 to 100 µM. For the same compound, the “ASMS (R3/R0)” value in assay [2] is “B (an affinity (R3/R0) between 100% and 20%)”.
Take `Clc1cccc(Sc2cccc3[nH]ccc23)c1` [I-243, 4-(3-chlorophenylthio)-1H-indole]: the IC50 in assay [1] is 10 to 100 µM. The “ASMS (R3/R0)” value in assay [2] was “B (an affinity (R3/R0) between 100% and 20%)”.
Take `Clc1ccccc1Sc1cccc2[nH]ccc12` [I-244, 4-(2-chlorophenylthio)-1H-indole]: in assay [1], the IC50 is 10 to 100 µM. For the same compound, the “ASMS (R3/R0)” value in assay [2] was “B (an affinity (R3/R0) between 100% and 20%)”.
Take `Clc1ccc(Sc2cccc3[nH]ccc23)cc1` [I-246, 4-(4-chlorophenylthio)-1H-indole]: the IC50 in assay [1] is 10 to 100 µM. The “ASMS (R3/R0)” value in assay [2] is reported as “C (an affinity (R3/R0)<20%)”.
The matching figures for `NC(=O)CCc1cc2c(Oc3ccccc3)c(Cl)ccc2[nH]1` [I-247, 3-(5-chloro-4-phenoxy-1H-indol-2-yl)propanamide]: 10 to 100 µM and “C (an affinity (R3/R0)<20%)”.
For `OCCCc1cc2c(Oc3ccccc3)c(Cl)ccc2[nH]1` [I-248, 3-(5-chloro-4-phenoxy-1H-indol-2-yl)propan-1-ol] the same measures were 10 to 100 µM and “C (an affinity (R3/R0)<20%)”.
For `OCc1cc2c(F)cc(Oc3ccccc3)cc2[nH]1` [I-249, (4-fluoro-6-phenoxy-1H-indol-2-yl)methanol] the same measures were 10 to 100 µM and “C (an affinity (R3/R0)<20%)”.
Consider `OCc1cc2c(Oc3ccccc3)c(Cl)c(Cl)cc2[nH]1` [I-250, (5,6-Dichloro-4-phenoxy-1H-indol-2-yl)methanol], for which, in assay [1], the IC50 is 10 to 100 µM. Further, in assay [2], the “ASMS (R3/R0)” value was “B (an affinity (R3/R0) between 100% and 20%)”.
As for `Clc1ccc(Cl)c(Oc2cccc3[nH]ccc23)c1` [I-251, 4-(2,5-Dichlorophenoxy)-1H-indole], in assay [1], the IC50 fell in the range of 10 to 100 µM. For the same compound, the “ASMS (R3/R0)” value in assay [2] is reported as “C (an affinity (R3/R0)<20%)”.
As to `OCc1cc2c(Cl)cc(Oc3ccccc3)cc2[nH]1` [I-252, (4-chloro-6-phenoxy-1H-indol-2-yl)methanol], the IC50 in assay [1] is 10 to 100 µM. Also, the “ASMS (R3/R0)” value in assay [2] was “B (an affinity (R3/R0) between 100% and 20%)”.
Turning to `Clc1cccc(Oc2cccc3[nH]ccc23)c1Cl` [I-254, 4-(2,3-Dichlorophenoxy)-1H-indole], in assay [1], the IC50 lay within 10 to 100 µM. For the same compound, the “ASMS (R3/R0)” value in assay [2] was “B (an affinity (R3/R0) between 100% and 20%)”.
With `Clc1ccc(Oc2cccc3[nH]ccc23)c(Cl)c1` [I-255, 4-(2,4-Dichlorophenoxy)-1H-indole], the IC50 in assay [1] fell in the range of 10 to 100 µM. Also, the “ASMS (R3/R0)” value in assay [2] was “B (an affinity (R3/R0) between 100% and 20%)”.
For `Clc1ccc2[nH]c(-c3cnco3)cc2c1Oc1ccccc1` [I-256, 5-(5-chloro-4-phenoxy-1H-indol-2-yl)oxazole], the IC50 in assay [1] lay in the range of 10 to 100 µM. In addition, the “ASMS (R3/R0)” value in assay [2] was “B (an affinity (R3/R0) between 100% and 20%)”.
Regarding `Clc1ccc2[nH]ccc2c1Oc1ccccc1` [I-257, 5-chloro-4-phenoxy-1H-indole], the IC50 in assay [1] was 10 to 100 µM. In assay [2], the “ASMS (R3/R0)” value was “C (an affinity (R3/R0)<20%)”.
Turning to `OCCc1cc2c(Oc3ccccc3)c(Cl)ccc2[nH]1` [I-261, 2-(5-chloro-4-phenoxy-1H-indol-2-yl)ethanol], in assay [1], the IC50 lay within 10 to 100 µM. In addition, the “ASMS (R3/R0)” value in assay [2] is reported as “C (an affinity (R3/R0)<20%)”.
